# Measured values from PubChem BioAssay (NCI).
#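 Abbreviation: GI50, concentration required for 50% inhibition of growth. TGI marks complete inhibition of growth.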
# Legend:
# Assay in all cases: NCI anticancer screen, dose series, 384-well format
# HCT-15 colon = system: HCT-15 colon
# HT29 colon = system: HT29 colon
# SF-539 CNS = system: SF-539 CNS
# TK-10 renal = system: TK-10 renal
# BT-549 breast = system: BT-549 breast
# UO-31 renal = system: UO-31 renal
# NCI-H322M lung = system: NCI-H322M lung
# NCI/ADR-RES ovarian = system: NCI/ADR-RES ovarian
# MOLT-4 leukemia = system: MOLT-4 leukemia
# HL-60(TB) leukemia = system: HL-60(TB) leukemia
# LOX IMVI melanoma = system: LOX IMVI melanoma
# MDA-MB-468 breast = system: MDA-MB-468 breast
# HS 578T breast = system: HS 578T breast
# OVCAR-8 ovarian = system: OVCAR-8 ovarian
# PC-3 prostate = system: PC-3 prostate
# KM12 colon = system: KM12 colon
# SNB-75 CNS = system: SNB-75 CNS
# A549 NSCLC = system: A549 NSCLC
# RXF 393 renal = system: RXF 393 renal
# K-562 leukemia = system: K-562 leukemia
# T-47D breast = system: T-47D breast
# IGROV1 ovarian = system: IGROV1 ovarian
# OVCAR-5 ovarian = system: OVCAR-5 ovarian
# SNB-19 CNS = system: SNB-19 CNS
# M14 melanoma = system: M14 melanoma
# OVCAR-3 ovarian = system: OVCAR-3 ovarian
# SF-268 CNS = system: SF-268 CNS
# UACC-257 melanoma = system: UACC-257 melanoma
# MDA-MB-435 melanoma = system: MDA-MB-435 melanoma
# CAKI-1 renal = system: CAKI-1 renal
# DU-145 prostate = system: DU-145 prostate
# SR leukemia = system: SR leukemia
# HOP-62 NSCLC = system: HOP-62 NSCLC
# HCT-116 colon = system: HCT-116 colon
# SW-620 colon = system: SW-620 colon
# A498 renal = system: A498 renal
# COLO 205 colon = system: COLO 205 colon
# SK-MEL-5 melanoma = system: SK-MEL-5 melanoma
# OVCAR-4 ovarian = system: OVCAR-4 ovarian
# HOP-92 NSCLC = system: HOP-92 NSCLC
# SK-MEL-28 melanoma = system: SK-MEL-28 melanoma
# EKVX NSCLC = system: EKVX NSCLC
# 786-0 renal = system: 786-0 renal
# SF-295 CNS = system: SF-295 CNS
# RPMI-8226 leukemia = system: RPMI-8226 leukemia
# NCI-H226 lung = system: NCI-H226 lung
# NCI-H522 lung = system: NCI-H522 lung
# CCRF-CEM leukemia = system: CCRF-CEM leukemia
# NCI-H460 NSCLC = system: NCI-H460 NSCLC
# MDA-MB-231 breast = system: MDA-MB-231 breast
# ACHN renal = system: ACHN renal
# HCC-2998 colon = system: HCC-2998 colon
# SK-OV-3 ovarian = system: SK-OV-3 ovarian
# MCF7 breast = system: MCF7 breast
# SN12C renal = system: SN12C renal
# MALME-3M melanoma = system: MALME-3M melanoma
# U251 glioblastoma = system: U251 glioblastoma
# NCI-H23 lung = system: NCI-H23 lung
smiles,measurement,setting,value
Nc1ccccc1NC(=O)c1ccc(CNC(=O)OCc2cccnc2)cc1,GI50,HCT-15 colon,1440 nM
same,TGI,HCT-15 colon,9090 nM
same,GI50,HT29 colon,563 nM
same,TGI,HT29 colon,2560 nM
same,GI50,SF-539 CNS,1630 nM
same,TGI,SF-539 CNS,14800 nM
same,GI50,TK-10 renal,441 nM
same,TGI,TK-10 renal,3820 nM
same,GI50,BT-549 breast,467 nM
same,TGI,BT-549 breast,3320 nM
same,GI50,UO-31 renal,1660 nM
same,TGI,UO-31 renal,13100 nM
same,GI50,NCI-H322M lung,1550 nM
same,TGI,NCI-H322M lung,6500 nM
same,GI50,NCI/ADR-RES ovarian,1460 nM
same,TGI,NCI/ADR-RES ovarian,4020 nM
same,GI50,MOLT-4 leukemia,164 nM
same,TGI,MOLT-4 leukemia,303 nM
same,GI50,HL-60(TB) leukemia,206 nM
same,TGI,HL-60(TB) leukemia,350 nM
same,GI50,LOX IMVI melanoma,357 nM
same,TGI,LOX IMVI melanoma,1050 nM
same,GI50,MDA-MB-468 breast,244 nM
same,TGI,MDA-MB-468 breast,713 nM
same,GI50,HS 578T breast,271 nM
same,TGI,HS 578T breast,1070 nM
same,GI50,OVCAR-8 ovarian,368 nM
same,TGI,OVCAR-8 ovarian,2090 nM
same,GI50,PC-3 prostate,1040 nM
same,TGI,PC-3 prostate,16400 nM
same,GI50,KM12 colon,2240 nM
same,TGI,KM12 colon,19900 nM
same,GI50,SNB-75 CNS,1130 nM
same,TGI,SNB-75 CNS,13700 nM
same,GI50,A549 NSCLC,1910 nM
same,TGI,A549 NSCLC,14700 nM
same,GI50,RXF 393 renal,239 nM
same,TGI,RXF 393 renal,918 nM
same,GI50,K-562 leukemia,185 nM
same,TGI,K-562 leukemia,1160 nM
same,GI50,T-47D breast,487 nM
same,TGI,T-47D breast,1220 nM
same,GI50,IGROV1 ovarian,363 nM
same,TGI,IGROV1 ovarian,1720 nM
same,GI50,OVCAR-5 ovarian,727 nM
same,TGI,OVCAR-5 ovarian,5000 nM
same,GI50,SNB-19 CNS,1780 nM
same,TGI,SNB-19 CNS,6060 nM
same,GI50,M14 melanoma,658 nM
same,TGI,M14 melanoma,5660 nM
same,GI50,OVCAR-3 ovarian,936 nM
same,TGI,OVCAR-3 ovarian,3130 nM
same,GI50,SF-268 CNS,220 nM
same,TGI,SF-268 CNS,719 nM
same,GI50,UACC-257 melanoma,375 nM
same,TGI,UACC-257 melanoma,1380 nM
same,GI50,MDA-MB-435 melanoma,652 nM
same,TGI,MDA-MB-435 melanoma,2400 nM
same,GI50,CAKI-1 renal,918 nM
same,TGI,CAKI-1 renal,2950 nM
same,GI50,DU-145 prostate,338 nM
same,TGI,DU-145 prostate,6410 nM
same,GI50,SR leukemia,31 nM
same,TGI,SR leukemia,105 nM
same,GI50,HOP-62 NSCLC,785 nM
same,TGI,HOP-62 NSCLC,3620 nM
same,GI50,HCT-116 colon,295 nM
same,TGI,HCT-116 colon,1190 nM
same,GI50,SW-620 colon,521 nM
same,TGI,SW-620 colon,2160 nM
same,GI50,A498 renal,399 nM
same,TGI,A498 renal,1860 nM
same,GI50,COLO 205 colon,775 nM
same,TGI,COLO 205 colon,2420 nM
same,GI50,SK-MEL-5 melanoma,243 nM
same,TGI,SK-MEL-5 melanoma,457 nM
same,GI50,OVCAR-4 ovarian,1330 nM
same,TGI,OVCAR-4 ovarian,3630 nM
same,GI50,HOP-92 NSCLC,256 nM
same,TGI,HOP-92 NSCLC,920 nM
same,GI50,SK-MEL-28 melanoma,234 nM
same,TGI,SK-MEL-28 melanoma,493 nM
same,GI50,EKVX NSCLC,2860 nM
same,TGI,EKVX NSCLC,90500 nM
same,GI50,786-0 renal,2100 nM
same,TGI,786-0 renal,14900 nM
same,GI50,SF-295 CNS,878 nM
same,TGI,SF-295 CNS,2110 nM
same,GI50,RPMI-8226 leukemia,20.5 nM
same,TGI,RPMI-8226 leukemia,45.3 nM
same,GI50,NCI-H226 lung,1070 nM
same,TGI,NCI-H226 lung,4880 nM
same,GI50,NCI-H522 lung,673 nM
same,TGI,NCI-H522 lung,2680 nM
same,GI50,CCRF-CEM leukemia,190 nM
same,TGI,CCRF-CEM leukemia,368 nM
same,GI50,NCI-H460 NSCLC,352 nM
same,TGI,NCI-H460 NSCLC,7660 nM
same,GI50,MDA-MB-231 breast,511 nM
same,TGI,MDA-MB-231 breast,2860 nM
same,GI50,ACHN renal,600 nM
same,TGI,ACHN renal,2620 nM
same,GI50,HCC-2998 colon,558 nM
same,TGI,HCC-2998 colon,1940 nM
same,GI50,SK-OV-3 ovarian,1500 nM
same,TGI,SK-OV-3 ovarian,5100 nM
same,GI50,MCF7 breast,404 nM
same,TGI,MCF7 breast,1940 nM
same,GI50,SN12C renal,1600 nM
same,TGI,SN12C renal,3280 nM
same,GI50,MALME-3M melanoma,109 nM
same,TGI,MALME-3M melanoma,255 nM
same,GI50,U251 glioblastoma,607 nM
same,TGI,U251 glioblastoma,1910 nM
same,GI50,NCI-H23 lung,790 nM
same,TGI,NCI-H23 lung,4450 nM
